Results taken from US11623923B2, “Uracil compound as c-MET/AXL inhibitor” (MEDSHINE DISCOVERY, INC., priority 2017, dated 2023).
Where two headings read alike, the source gives them in different places. One block for each molecule: values may come before it.

Assays:
[1] = system: Hs746t gastric cancer cells; experiment: Drug efficacy in a model with subcutaneous xenograft tumor of Hs746t gastric cancer cells; format: in vivo, BALB/c nude mice; conditions: for Tumor volume (Day 0): Day 0, Mean ± SEM; for Tumor volume (Day 20): Day 20, Mean ± SEM
Experimental: Assay Example 4: Assay of Drug Efficacy in a Model with Subcutaneous Xenograft Tumor of Hs746t Gastric Cancer Cells
Human gastric cancer Hs746t cells were cultured in vitro in monolayer. The culture conditions were DMEM medium plus 10% fetal bovine serum, 100 U/mL penicillin and 100 U/mL streptomycin, 37° C., 5% CO2 incubator. The passaging was carried out by conventional digestion with trypsin-EDTA twice a week. When the cell saturation was 80%-90%, and the number met the requirements, the cells were collected, counted, and inoculated.
(§1) BALB/c nude mice, male, 6-8 weeks old, weighted 18-22 grams.
0.2 mL (2×10^6, cells:Matrigel=1:1) of HS 746T cells were subcutaneously inoculated on the right back of each mouse. When the average tumor volume reached about 100-150 mm^3, administration to each group was started.
(§2) Assay index: The assay index is to investigate whether tumor growth is inhibited, delayed or cured. Tumor diameter was measured twice a week with a vernier caliper. The calculation formula of tumor volume is: V=0.5a×b^2, wherein a and b represent the long and short diameters of the tumor, respectively. The anti-tumor efficacy (TGI) of the compound was evaluated by T-C (day) and T/C (%).
Assay results: See Table 4.

[2] = system: MKN45 gastric cancer cell line; experiment: Assay of inhibitory effect on cell proliferation (CellTiter-Glo); format: cell-based; conditions: Homo sapiens, MKN-45, 72 h, read-out: MKN45 cell IC50
Text: Assay Example 2: Assay of Inhibitory Effect on Cell Proliferation
1. cell culture: DMEM medium, fetal bovine serum, DPBS
2. cell line: MKN45 gastric cancer cell line
3. detection reagent: live cell detection kit CellTiter-Glo
4. other main materials and reagents: compound dilution plate, middle plate, detection plate, DMSO
The content of ATP directly reflects the number and state of cells. By quantitation of ATP, the number of living cells can be detected. The living cell detection kit contains luciferase and its substrate. Through the participation of ATP, the luciferase can catalyze the substrate to emit a stable light signal. The number of ATP in the cells was determined by detecting the intensity of the signal. The light signal was directly proportional to the number of ATP in the cells, while ATP was positively correlated with the number of living cells, so that the proliferation of cells can be detected. The test plate was analyzed using Envision from PE Inc.
1. Preparation of the Cell Plate
The MKN45 cells were seeded into a 384-well plate with 200 cells per well. The cell plate was placed in a carbon dioxide incubator and incubated overnight.
2. Preparation of Compounds
Compounds were subject to a 5-fold serial dilution with Echo to obtain nine concentrations, in duplicate.
3. Treatment of Cells with Compounds
The compounds were transferred to the cell plate at an initial concentration of […]. The cell plate was placed in a carbon dioxide incubator and incubated for three days.
A Promega CellTiter-Glo reagent was added to the cell plate and incubated at room temperature for 10 minutes to stabilize the luminescence signal. A PerkinElmer Envision multi-label analyzer was used for reading.

[3] = system: MKN45 gastric cancer cells; experiment: Drug efficacy in a model with subcutaneous xenograft tumor of MKN45 gastric cancer cells; format: in vivo, BALB/c nude mice; conditions: day 14 after administration; for Tumor volume (Day 14): Mean ± SEM
Experimental: Assay Example 3: Assay of Drug Efficacy in a Model with Subcutaneous Xenograft Tumor of MKN45 Gastric Cancer Cells
MKN45 cells were cultured in vitro in monolayer. The culture conditions were RPMI1640 medium plus 10% heat-inactivated fetal bovine serum, 1% penicillin-streptomycin, 37° C., and 5% CO2. The passaging was carried out by conventional digestion with trypsin-EDTA twice a week. When the cells were in the exponential growth phase, the cells were collected, counted, and inoculated.
as §1
0.2 ml of a suspension containing 5×10^6 MKN45 cells was inoculated subcutaneously on the right back of each mouse. When the average volume of the tumor reached about 160 mm^3, administration to each group was started.
as §2, with “index: the” for “index: The”, “whether the” for “whether”
Assay results: See Table 3.

MHCC97H cell = conditions: read-out: MHCC97H cell IC50; cited from earlier work
[4] = three days incubation, CellTiter-Glo

SMILES: Cc1ccc(C(=O)Nc2ccc(Oc3cc4cnn(C)c4cc3-c3cn[nH]c3)c(F)c2)c(=O)n1-c1ccc(F)cc1 [LY2801653, reference compound]
TGI ([1]; 4.5 mpk): 101.62%
Tumor volume (Day 0) ([1]; 4.5 mpk): 127 ± 12 mm^3
T/C (Day 20) ([1]; 4.5 mpk): 3.45%
Tumor volume (Day 20) ([1]; 4.5 mpk): 88 ± 13 mm^3

SMILES: Cc1[nH]c(=O)n(-c2ccc(F)cc2)c(=O)c1C(=O)Nc1ccc(Oc2ccnc(N)c2Cl)c(F)c1 [Example 11]
IC50 [2]: 240 nM

SMILES: CN(C)C(=O)Nc1cc(Oc2ccc(NC(=O)c3cn(CC4CC4)c(=O)n(-c4ccc(F)cc4)c3=O)cc2F)ccn1 [Example 17]
TGI ([1]; 1.5 mpk): 74.16%
Tumor volume (Day 0) ([1]; 1.5 mpk): 127 ± 12 mm^3
T/C (Day 20) ([1]; 1.5 mpk): 30.68%
Tumor volume (Day 20) ([1]; 1.5 mpk): 780 ± 195 mm^3
TGI ([1]; 4.5 mpk): 104.82%
Tumor volume (Day 0) ([1]; 4.5 mpk): 127 ± 13 mm^3
T/C (Day 20) ([1]; 4.5 mpk): 0.15%
Tumor volume (Day 20) ([1]; 4.5 mpk): 4 ± 2 mm^3
TGI ([1]; 9 mpk): 105.02%
Tumor volume (Day 0) ([1]; 9 mpk): 127 ± 9 mm^3
T/C (Day 20) ([1]; 9 mpk): 0.00%
Tumor volume (Day 20) ([1]; 9 mpk): 0 ± 0 mm^3

SMILES: CC(C)n1cc(C(=O)Nc2ccc(Oc3ccnc(N)c3Cl)c(F)c2)c(=O)n(-c2ccc(F)cc2)c1=O [Example 1]
IC50 [2]: 54 nM
T/C [3]: 16.5%
TGI [3]: 95.1%
Tumor volume (Day 14) [3]: 218 ± 31 mm^3

SMILES: CN1CCC(COc2cnc(-c3cccc(Cn4nc(-c5cccc(C#N)c5)ccc4=O)c3)nc2)CC1 [Tepotinib]
IC50 (MHCC97H cell): 6.2 nM

SMILES: O=C(Nc1ccc(Oc2ccnc(NC(=O)N3CCC3)c2)c(F)c1)c1cn(CC2CC2)c(=O)n(-c2ccc(F)cc2)c1=O [Example 18]
IC50 [2]: 12.1 nM

SMILES: O=C(Nc1ccc(Oc2ccnc(NC(=O)N3CCCC3)c2)c(F)c1)c1cn(CC2CC2)c(=O)n(-c2ccc(F)cc2)c1=O [Example 20]
IC50 [2]: 29.1 nM

IC50 [2, 4]: 27 nM
SMILES: Nc1nccc(Oc2ccc(NC(=O)c3cn(CC4CC4(F)F)c(=O)n(-c4ccc(F)cc4)c3=O)cc2F)c1Cl (stereo not shown) [Example 3]

IC50 [2, 4]: 436 nM
SMILES: CCOc1ccn(-c2ccc(F)cc2)c(=O)c1C(=O)Nc1ccc(Oc2ccnc(N)c2Cl)c(F)c1 [BMS777607, reference compound]
TGI ([1]; 4.5 mpk): 27.61%
Tumor volume (Day 0) ([1]; 4.5 mpk): 127 ± 11 mm^3
T/C (Day 20) ([1]; 4.5 mpk): 73.58%
Tumor volume (Day 20) ([1]; 4.5 mpk): 1872 ± 355 mm^3

SMILES: Nc1nccc(Oc2ccc(NC(=O)c3cn(CC4CC4)c(=O)n(-c4ccc(F)cc4)c3=O)cc2F)c1Cl [Example 5]
IC50 [2]: 11 nM
T/C [3]: 15.3%
TGI [3]: 96.9%
Tumor volume (Day 14) [3]: 196 ± 17 mm^3
TGI ([1]; 4.5 mpk): 104.43%
Tumor volume (Day 0) ([1]; 4.5 mpk): 126 ± 10 mm^3
T/C (Day 20) ([1]; 4.5 mpk): 0.78%
Tumor volume (Day 20) ([1]; 4.5 mpk): 20 ± 8 mm^3
TGI ([1]; 9 mpk): 105.01%
Tumor volume (Day 0) ([1]; 9 mpk): 127 ± 10 mm^3
T/C (Day 20) ([1]; 9 mpk): 0.00%
Tumor volume (Day 20) ([1]; 9 mpk): 0 ± 0 mm^3

SMILES: N#Cc1c(Oc2ccc(NC(=O)c3cn(CC4CC4)c(=O)n(-c4ccc(F)cc4)c3=O)cc2F)ccnc1N [Example 14]
IC50 [2]: 30 nM

SMILES: O=C(Nc1ccc(Oc2ccnc(NC(=O)N3CCOCC3)c2)c(F)c1)c1cn(CC2CC2)c(=O)n(-c2ccc(F)cc2)c1=O [Example 13]
IC50 [2]: 38 nM

IC50 [2, 4]: 374 nM
SMILES: CC(C)Cn1cc(C(=O)Nc2ccc(Oc3ccnc(N)c3Cl)c(F)c2)c(=O)n(-c2ccc(F)cc2)c1=O [Example 8]

SMILES: Nc1nccc(Oc2ccc(NC(=O)c3cn(CC(F)F)c(=O)n(-c4ccc(F)cc4)c3=O)cc2F)c1Cl [Example 9]
IC50 [2]: 365 nM

SMILES: NC(=O)Nc1cc(Oc2ccc(NC(=O)c3cn(CC4CC4)c(=O)n(-c4ccc(F)cc4)c3=O)cc2F)ccn1 [Example 16]
IC50 [2]: 50.7 nM

IC50 [2, 4]: 315 nM
SMILES: Nc1nccc(Oc2ccc(NC(=O)c3c4n(c(=O)n(-c5ccc(F)cc5)c3=O)CCC4)cc2F)c1Cl [Example 12]

SMILES: C=CCn1cc(C(=O)Nc2ccc(Oc3ccnc(N)c3Cl)c(F)c2)c(=O)n(-c2ccc(F)cc2)c1=O [Example 2]
IC50 [2]: 78 nM
